Assay results published in US11866692B2, “Fermentation fungal substance of astragalus membranaceus paecilomyces cicadae and its use” (BinZhou Medical University, priority 2019, dated 2024).

Tested on: rats with hyperuricemia
Experiment: Efficacy test in potassium oxonate-induced hyperuricemia rats (serum UA, BUN, CRE, TG)
Assay type: in vivo, Sprague Dawley (SD) rats
Details: gavage twice each day for 14 days, 300 mg·kg−1 (benzbromarone 20 mg·kg−1), serum 4 h after last administration
Description: SD rats were randomly divided into normal group, hyperuricemia (HUA) model group, positive medicine control group, Astragalus membranaceus group and fungal substance A group based on body mass, with 8 rats in each group. They were used in experiments after one week of adaptive feeding in an animal room. All groups were fed with normal feed. In addition, the normal group was treated with distilled water by gavage. Other groups were treated with 300 mg·kg^−1 of potassium oxonate by gavage each day for modeling. After 1 hour, the positive medicine control group was treated with 20 mg·kg^−1 of benzbromarone by gavage, the Astragalus membranaceus group was treated with 300 mg·kg^−1 of an Astragalus membranaceus powder solution by gavage, and the fungal substance A group was treated with 300 mg·kg^−1 of a fungal substance A solution by gavage. The treatment was performed twice each day for 14 consecutive days, and the dosage was 10 mL·kg^−1. Four hours after administration on the last day, blood samples were taken from the orbital venous plexus of the rats. The blood samples were stored at 4° C. overnight, and then centrifuged to obtain serum, which was for determination of biochemical indexes. After routine calibration and quality control, the contents of uric acid (UA), urea nitrogen (BUN), creatinine (CRE) and triglyceride (TG) in serum were determined by an automatic biochemical analyzer. All test results are expressed in the form of “mean±standard deviation”. Excel and software SPSS17.0 were utilized for calculation and statistics. After all data were tested for normal distribution and homogeneity of variance, single factor analysis of variance was performed. The difference between the two groups was tested by t-test. When P<0.05, the difference was considered to be statistically significant.

CCc1oc2ccccc2c1C(=O)c1cc(Br)c(O)c(Br)c1 [benzbromarone]
Serum UA level compared with the model group (FIG. 1): significantly reduced
Serum CRE level compared with the model group (FIG. 3): very significantly reduced
Serum TG level compared with the model group (FIG. 4): significantly reduced
